From PMC2213614 (The Journal of Cell Biology, 2008)

Molecular target: Sec3N (GST-Sec3N, N terminus of Sec3, aa 1-320) (Saccharomyces cerevisiae, UniProt P33332)
Format: binding
Conditions: 25°C

Chain of Sec3N (GST-Sec3N, N terminus of Sec3, aa 1-320) (P33332 1-320 limits assumed): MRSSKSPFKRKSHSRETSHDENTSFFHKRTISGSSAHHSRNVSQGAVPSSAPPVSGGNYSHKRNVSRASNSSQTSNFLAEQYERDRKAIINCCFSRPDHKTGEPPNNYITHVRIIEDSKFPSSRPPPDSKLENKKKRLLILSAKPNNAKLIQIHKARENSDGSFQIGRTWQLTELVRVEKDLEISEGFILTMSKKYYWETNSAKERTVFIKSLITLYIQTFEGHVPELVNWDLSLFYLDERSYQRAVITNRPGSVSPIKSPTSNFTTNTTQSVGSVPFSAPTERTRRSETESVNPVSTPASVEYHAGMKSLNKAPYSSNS

phosphatidylinositol 4,5-bisphosphate
Kd: 14.4 ± 4 µM
